Data reported in patent US5668001A, “3-hydroxy-3-methyl-glutaryl-coa synthase preparation with improved stability” (MCW Research Foundation, Inc., priority 1994, dated 1997).
Read-outs that look alike come from different tables or passages of the source.

Legend:
[1] = test system: native avian liver HMG-CoA synthase (liver enzyme); conditions: read-out: Km AcCoA (Hydrolase Rxn.), absence of acetoacetyl-CoA; cited from earlier work
[2] = test system: native avian liver HMG-CoA synthase (liver enzyme); conditions: read-out: Km AcCoA (Overall Rxn.), apparent value, in presence of 20 μM acetoacetylCoA; cited from earlier work
[3] = target: T1, recombinant avian cytosolic HMG-CoA synthase (wild type, alanine replacing proline at residue 2; SEQ ID NO:2) expressed in E. coli (Gallus gallus, UniProt P23228, P2A); assay: R.CoA binding by EPR (Scatchard plot); set-up: species or system avian (chicken); conditions: 50 mM sodium phosphate pH 7.0, ambient temperature
T1 construct: Isolation of full length cDNA encoding avian HMG-CoA synthase from a λgt11 library has been reported; made in house; host or cells: E. coli BL21(DE3), plasmid pACS (pET-3d)
T1 sequence (P23228 2-522 P2A limits assumed): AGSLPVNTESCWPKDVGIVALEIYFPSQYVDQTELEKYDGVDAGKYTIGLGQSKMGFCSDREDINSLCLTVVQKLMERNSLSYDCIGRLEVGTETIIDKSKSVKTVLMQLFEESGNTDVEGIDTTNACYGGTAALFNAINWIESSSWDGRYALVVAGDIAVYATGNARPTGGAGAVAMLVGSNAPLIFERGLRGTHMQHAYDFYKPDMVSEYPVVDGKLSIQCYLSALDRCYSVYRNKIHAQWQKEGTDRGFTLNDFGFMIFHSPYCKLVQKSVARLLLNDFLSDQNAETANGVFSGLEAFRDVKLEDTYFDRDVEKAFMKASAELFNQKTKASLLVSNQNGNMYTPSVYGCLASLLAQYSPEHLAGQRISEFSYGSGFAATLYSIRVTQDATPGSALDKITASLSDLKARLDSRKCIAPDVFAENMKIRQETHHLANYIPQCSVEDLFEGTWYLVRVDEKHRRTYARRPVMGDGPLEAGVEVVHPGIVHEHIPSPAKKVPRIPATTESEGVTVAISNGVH
Method: Measurement of R.CoA Binding by EPR. Conventional X-band EPR spectra were recorded using a Varian Century-Line 9-GHz spectrometer. The samples contained variable concentrations of HMG-CoA synthase sites (0-930 μM) in 50 mM sodium phosphate buffer, pH 7.0, and 50 or 150 μM R.CoA. R.CoA bound to HMG-CoA synthase was calculated by comparing the amplitudes of high, center, or low-field lines of sample spectra to the corresponding lines observed with a solution containing an equal concentration of R.CoA in buffer. The data were analyzed (Miziorko et al., (1979) Biochemistry 18, 399-403) by Scatchard plot using linear regression analysis. The spectra were recorded at ambient temperature with a modulation amplitude of 1 G, modulation frequency of 100 KHz and microwave power 5 mW. Field sweep was 100 G and time constant was 0.5 sec. The EPR spectrum of bound R.CoA was obtained at 5 G modulation amplitude and variable gain. Rotational correlation time of the bound spin label was determined using a spectral simulation algorithm (Freed, (1976) Spin Labeling: Theory and Applications (L. Berliner, ed.) 1, 53-132; Schneider, et al. (1989) Biological Magnetic Resonance 8, 1-76).

[4] = substrate: CC(=O)SCCNC(=O)CCNC(=O)[C@H](O)C(C)(C)COP(=O)(O)OP(=O)(O)OC[C@H]1O[C@@H](n2cnc3c(N)ncnc32)[C@H](O)[C@@H]1OP(=O)(O)O; assay: purified protein, by the assay type; conditions: other: recombinant enzyme

CC(=O)SCCNC(=O)CCNC(=O)[C@H](O)C(C)(C)COP(=O)(O)OP(=O)(O)OC[C@H]1O[C@@H](n2cnc3c(N)ncnc32)[C@H](O)[C@@H]1OP(=O)(O)O [AcCoA, acetyl-CoA]
Km [1]: 14 µM | Km [2]: 300 µM

CC(C)(COP(=O)(O)OP(=O)(O)OC[C@H]1O[C@@H](n2cnc3c(N)ncnc32)[C@H](O)[C@@H]1OP(=O)(O)O)[C@@H](O)C(=O)NCCC(=O)NCCSC(=O)C1CC(C)(C)N([O])C1(C)C (some centres unmarked) [R.CoA]
Kd [3]: 102 µM

B1: recombinant avian cytosolic HMG-CoA synthase (wild type, alanine replacing proline at residue 2; SEQ ID NO:2) expressed in E. coli (Gallus gallus; P2A) (protein)
chain: AGSLPVNTESCWPKDVGIVALEIYFPSQYVDQTELEKYDGVDAGKYTIGLGQSKMGFCSDREDINSLCLTVVQKLMERNSLSYDCIGRLEVGTETIIDKSKSVKTVLMQLFEESGNTDVEGIDTTNACYGGTAALFNAINWIESSSWDGRYALVVAGDIAVYATGNARPTGGAGAVAMLVGSNAPLIFERGLRGTHMQHAYDFYKPDMVSEYPVVDGKLSIQCYLSALDRCYSVYRNKIHAQWQKEGTDRGFTLNDFGFMIFHSPYCKLVQKSVARLLLNDFLSDQNAETANGVFSGLEAFRDVKLEDTYFDRDVEKAFMKASAELFNQKTKASLLVSNQNGNMYTPSVYGCLASLLAQYSPEHLAGQRISEFSYGSGFAATLYSIRVTQDATPGSALDKITASLSDLKARLDSRKCIAPDVFAENMKIRQETHHLANYIPQCSVEDLFEGTWYLVRVDEKHRRTYARRPVMGDGPLEAGVEVVHPGIVHEHIPSPAKKVPRIPATTESEGVTVAISNGVH
Km ([4]; absence of acetoacetyl-CoA, pH 8.0, 30° C., pH 8.0): 12 µM | Km ([4]; apparent value, in presence of 20 μM acetoacetylCoA, 30° C., pH 8.2, pH 8.2): 270 µM
